Source: ChEMBL document CHEMBL4359843, “Linear and Rationally Designed Stapled Peptides Abrogate TLR4 Pathway and Relieve Inflammatory Symptoms in Rheumatoid Arthritis Rat Model” (J Med Chem, 2019)
Values belong to the compound of their own block, whether it stands above or below them. Calls of active or inactive are those of the source. No cut-off for these calls is given here. Where a SMILES comes first, the peptide text is derived from it. Bridges are numbered along the chain shown (N, C = ends).

Legend:
Toll-like receptor 4 [1] = biological target: T1, Toll-like receptor 4 (Homo sapiens, UniProt O00206); test: Antagonist activity at TLR4 in human THP1 cells assessed as reduction in LPS-induced IRF3 phosphorylation at 50 uM after 120 to 240 mins by Western blot analysis; format: cell-based
T1 sequence (O00206 whole entry): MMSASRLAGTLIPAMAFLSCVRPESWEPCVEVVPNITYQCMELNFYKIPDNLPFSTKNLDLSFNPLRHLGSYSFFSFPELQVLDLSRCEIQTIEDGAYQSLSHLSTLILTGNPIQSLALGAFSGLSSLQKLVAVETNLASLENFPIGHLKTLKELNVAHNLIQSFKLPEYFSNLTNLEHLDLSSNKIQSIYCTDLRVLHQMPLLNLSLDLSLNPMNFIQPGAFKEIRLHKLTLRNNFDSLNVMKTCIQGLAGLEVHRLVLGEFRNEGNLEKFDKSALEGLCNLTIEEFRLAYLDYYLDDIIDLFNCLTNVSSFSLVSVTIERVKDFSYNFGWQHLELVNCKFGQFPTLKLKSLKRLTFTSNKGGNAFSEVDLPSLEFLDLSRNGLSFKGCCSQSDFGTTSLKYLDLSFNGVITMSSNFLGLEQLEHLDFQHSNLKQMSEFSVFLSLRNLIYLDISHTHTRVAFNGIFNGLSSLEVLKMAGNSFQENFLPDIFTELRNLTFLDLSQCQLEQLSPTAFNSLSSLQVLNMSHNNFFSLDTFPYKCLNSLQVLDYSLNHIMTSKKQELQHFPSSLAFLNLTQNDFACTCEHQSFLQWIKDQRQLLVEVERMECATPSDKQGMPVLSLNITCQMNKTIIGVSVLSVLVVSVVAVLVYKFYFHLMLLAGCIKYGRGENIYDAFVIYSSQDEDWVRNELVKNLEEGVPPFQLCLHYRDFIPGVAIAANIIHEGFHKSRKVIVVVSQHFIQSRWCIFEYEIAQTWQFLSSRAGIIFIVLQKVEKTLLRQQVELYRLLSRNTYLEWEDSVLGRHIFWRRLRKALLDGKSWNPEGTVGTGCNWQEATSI

TLR2/TLR6 (Homo sapiens) = TLR2/TLR6 (Homo sapiens) (UniProt O60603+Q9Y2C9); test: Antagonist activity at TLR2/6 in human THP1 cells assessed as reduction in FSL-1-induced IL6 secretion at 50 uM after 24 hrs by ELISA; format: cell-based
RAW264.7 [2] = test: Cytotoxicity against mouse RAW264.7 cells assessed as reduction in cell viability at 5 to 50 uM after 24 hrs by MTT assay; format: cell-based; settings: raw264.7, 24 h
[3] = biological target: T2, Toll-like receptor 4 (Mus musculus) (UniProt Q9QUK6); test: Antagonist activity at TLR4 in mouse RAW264.7 cells assessed as reduction in LPS-induced IFNalpha secretion at 5 to 50 uM after 24 hrs by ELISA; format: cell-based
T2 sequence (whole entry): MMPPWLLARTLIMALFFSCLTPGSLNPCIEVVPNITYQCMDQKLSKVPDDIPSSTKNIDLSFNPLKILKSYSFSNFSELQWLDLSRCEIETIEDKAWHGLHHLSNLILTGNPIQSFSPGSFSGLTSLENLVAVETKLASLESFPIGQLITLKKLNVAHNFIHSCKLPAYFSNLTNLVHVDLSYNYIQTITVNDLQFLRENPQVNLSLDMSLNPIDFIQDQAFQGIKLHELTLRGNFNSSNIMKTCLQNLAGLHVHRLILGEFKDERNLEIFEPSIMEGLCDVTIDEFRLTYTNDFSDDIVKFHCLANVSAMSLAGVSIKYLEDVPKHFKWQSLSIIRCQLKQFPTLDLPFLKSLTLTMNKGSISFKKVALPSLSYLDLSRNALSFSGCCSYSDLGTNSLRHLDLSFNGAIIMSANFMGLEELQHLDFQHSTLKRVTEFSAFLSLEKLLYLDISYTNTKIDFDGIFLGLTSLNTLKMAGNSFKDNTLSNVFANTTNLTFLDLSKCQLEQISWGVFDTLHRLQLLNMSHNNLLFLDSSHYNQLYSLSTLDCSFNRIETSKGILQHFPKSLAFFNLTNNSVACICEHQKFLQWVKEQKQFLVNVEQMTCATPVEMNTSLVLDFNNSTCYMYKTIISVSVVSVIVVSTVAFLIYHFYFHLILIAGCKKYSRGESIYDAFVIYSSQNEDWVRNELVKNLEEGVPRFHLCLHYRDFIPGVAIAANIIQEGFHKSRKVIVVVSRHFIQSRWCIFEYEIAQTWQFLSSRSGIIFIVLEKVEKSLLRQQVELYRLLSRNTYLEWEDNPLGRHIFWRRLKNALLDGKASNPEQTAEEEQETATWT

Toll-like receptor 4 [4] = biological target: T1, Toll-like receptor 4; test: Antagonist activity at TLR4 in human THP1 cells assessed as reduction in LPS-induced ERK phosphorylation at 50 uM after 15 to 30 mins by Western blot analysis; format: cell-based
[5] = biological target: T2, Toll-like receptor 4 (Mus musculus); test: Antagonist activity at TLR4 in mouse RAW264.7 cells assessed as reduction in LPS-induced cytosolic NO level at 50 uM by DAF-FM staining based FACS analysis; format: cell-based
Rattus norvegicus = test: Antiarthritic activity in Lewis rat model of complete Freund's adjuvant-induced arthritis assessed as appearance of osteocytes at 1 nmol/g administered intra-articularly into knee joint after 1 week by H and E staining based histopathological analysis; format: functional, organism-based
[6] = biological target: T2, Toll-like receptor 4 (Mus musculus); test: Antagonist activity at TLR4 in mouse RAW264.7 cells assessed as reduction in LPS-induced cytosolic ROS level at 50 uM by DCF-DA staining based FACS analysis; format: cell-based
[7] = biological target: T2, Toll-like receptor 4 (Mus musculus); test: Antagonist activity at TLR4 in mouse RAW264.7 cells assessed as reduction in LPS-induced IRF3 phosphorylation at 80 uM after 120 to 240 mins by Western blot analysis; format: cell-based
[8] = biological target: T2, Toll-like receptor 4 (Mus musculus); test: Antagonist activity at TLR4 in mouse RAW264.7 cells assessed as reduction in LPS-induced extracellular NO secretion at 20 to 80 uM by spectrophotometric method; format: cell-based
[9] = biological target: T2, Toll-like receptor 4 (Mus musculus); test: Antagonist activity at TLR4 in mouse BMDM cells assessed as reduction in LPS-induced TNFalpha secretion at 20 to 80 uM after 24 hrs by ELISA; format: cell-based
RAW264.7 [10] = test: Cytotoxicity against mouse RAW264.7 cells assessed as reduction in cell viability at 20 to 80 uM after 24 hrs by MTT assay; format: cell-based; settings: raw264.7, 24 h
[11] = biological target: Toll-like receptor 2 (Homo sapiens) (UniProt O60603); test: Non-specific binding affinity to human TLR2 up to 200 uM by surface plasmon resonance analysis
Sequence of Toll-like receptor 2 (Homo sapiens) (O60603 whole entry): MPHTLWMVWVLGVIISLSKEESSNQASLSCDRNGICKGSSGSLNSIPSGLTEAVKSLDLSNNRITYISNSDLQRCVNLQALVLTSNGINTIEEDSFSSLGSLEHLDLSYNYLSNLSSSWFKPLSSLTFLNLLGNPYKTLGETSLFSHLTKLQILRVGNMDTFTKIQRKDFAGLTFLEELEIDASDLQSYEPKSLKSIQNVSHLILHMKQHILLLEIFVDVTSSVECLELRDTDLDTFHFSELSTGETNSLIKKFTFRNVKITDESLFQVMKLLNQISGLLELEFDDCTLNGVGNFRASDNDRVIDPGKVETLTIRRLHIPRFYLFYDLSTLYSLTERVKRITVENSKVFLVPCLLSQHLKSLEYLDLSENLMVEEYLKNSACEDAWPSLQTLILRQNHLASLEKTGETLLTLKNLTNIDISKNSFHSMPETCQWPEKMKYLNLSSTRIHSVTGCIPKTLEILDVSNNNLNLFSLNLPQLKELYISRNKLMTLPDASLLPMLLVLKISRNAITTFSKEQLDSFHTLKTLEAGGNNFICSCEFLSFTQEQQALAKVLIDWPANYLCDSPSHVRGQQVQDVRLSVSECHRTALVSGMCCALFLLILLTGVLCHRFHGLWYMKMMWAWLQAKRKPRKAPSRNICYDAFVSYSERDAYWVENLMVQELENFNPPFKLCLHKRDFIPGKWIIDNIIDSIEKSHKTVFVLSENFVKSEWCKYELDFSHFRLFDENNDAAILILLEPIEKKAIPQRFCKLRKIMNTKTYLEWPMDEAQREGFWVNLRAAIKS

[12] = biological target: T2, Toll-like receptor 4 (Mus musculus); test: Antagonist activity at TLR4 in mouse RAW264.7 cells assessed as reduction in LPS-induced JNK phosphorylation at 80 uM after 15 to 30 mins by Western blot analysis; format: cell-based
[13] = biological target: T2, Toll-like receptor 4 (Mus musculus); test: Antagonist activity at TLR4 in mouse BMDM cells assessed as reduction in LPS-induced extracellular NO secretion by spectrophotometric method; format: cell-based
RAW264.7 [14] = test: Cytotoxicity against mouse RAW264.7 cells assessed as reduction in cell viability at 100 uM after 24 hrs by MTT assay; format: cell-based; settings: raw264.7, 24 h
Toll-like receptor 4 [15] = biological target: T1, Toll-like receptor 4; test: Antagonist activity at TLR4 in human PBMC cells assessed as reduction in LPS-induced IL6 secretion at 20 to 80 uM after 24 hrs by ELISA; format: cell-based
Toll-like receptor 4 [16] = biological target: T1, Toll-like receptor 4; test: Antagonist activity at TLR4 in human PBMC cells assessed as reduction in LPS-induced ERK phosphorylation at 80 uM after 15 to 30 mins by Western blot analysis; format: cell-based
Mus musculus = test: Antiinflammatory activity in C57BL/6J mouse assessed as reduction in LPS-induced IL-12p40 secretion at 70 nmol/g, ip pretreated for 1 hr followed by LPS challenge and measured after 2 hrs by ELISA; format: functional, organism-based
[17] = Effect on SEAP activity in HEK-Blue cells harboring human TLR4 at 20 to 80 uM after 1 hr by SEAP assay; format: ADME, cell-based
[18] = biological target: T2, Toll-like receptor 4 (Mus musculus); test: Antagonist activity at TLR4 in mouse RAW264.7 cells assessed as reduction in LPS-induced p38 phosphorylation at 80 uM after 15 to 30 mins by Western blot analysis; format: cell-based
Toll-like receptor 4 [19] = biological target: T1, Toll-like receptor 4; test: Antagonist activity at TLR4 in human PBMC cells assessed as reduction in LPS-induced TNFalpha secretion at 20 to 80 uM after 24 hrs by ELISA; format: cell-based
Toll-like receptor 4 [20] = biological target: T1, Toll-like receptor 4; test: Antagonist activity at TLR4 in human PBMC cells assessed as reduction in LPS-induced NFkappaB p65 phosphorylation at 80 uM after 15 to 30 mins by Western blot analysis; format: cell-based
[21] = biological target: T2, Toll-like receptor 4 (Mus musculus); test: Antagonist activity at TLR4 in mouse RAW264.7 cells assessed as reduction in LPS-induced iNOS expression at 80 uM by Western blot analysis; format: cell-based

- Activity (Toll-like receptor 4 [1]): Active
- Activity (TLR2/TLR6 (Homo sapiens)): Active
- Activity [3]: Active
- Activity (Toll-like receptor 4 [4]): Active
- Activity [5]: Active
- Activity [6]: Active
Compound: CC[C@H](C)[C@@H]1NC(=O)[C@H](Cc2c[nH]c3ccccc23)NC(=O)[C@H](Cc2c[nH]c3ccccc23)NC(=O)[C@@H](NC(=O)[C@H](CO)NC(=O)[C@H](Cc2ccccc2)NC(=O)[C@@H](NC(=O)CNC(=O)[C@@H](N)CC(C)C)C(C)C)CC(=O)NCCCC[C@@H](C(=O)N[C@@H](CC(C)C)C(=O)N[C@H](C(=O)O)C(C)C)NC1=O (H-LGVFSDWWIKLV-OH; lactam 6-10)
- Activity (RAW264.7 [2]): Non-Toxic
- Activity (Rattus norvegicus): Active

- Activity [7]: Active
- Activity [8]: Active
- Activity [9]: Active
- Activity [11]: Active
- Activity [12]: Active
- Activity [13]: Dose-dependent effect
- Activity (Toll-like receptor 4 [15]): Active
- Activity (Toll-like receptor 4 [16]): Active
- Activity [18]: Active
- Activity (Toll-like receptor 4 [19]): Active
- Activity (Toll-like receptor 4 [20]): Active
- Activity [21]: Active
Compound: H-LGVFSSWWIKLV-OH
- Activity (RAW264.7 [10]): Non-Toxic
- Activity (RAW264.7 [14]): Toxic
- Activity (Mus musculus): Active
- Activity [17]: Non-Toxic
